In ChEMBL document CHEMBL4418912, “Methods of identifying antagonists of the hTAS2R46 bitter taste receptor” (2014):
Activity calls are given as the source filed them. The calls are words filed in the database; no cut-off is given here.

Columns and labels:
Format in all cases: functional, cell-based
[1] = target: T1, Taste receptor type 2 member 8 (Homo sapiens) (UniProt Q9NYW2); experiment: Agonist activity at recombinant human N-terminal rat ST3 receptor-fused TAS2R8 expressed in HEK293T cells co-expressing Galpha16gust44 assessed as increase in intracellular calcium level at 100 uM by FLIPR assay
T1 sequence (whole entry): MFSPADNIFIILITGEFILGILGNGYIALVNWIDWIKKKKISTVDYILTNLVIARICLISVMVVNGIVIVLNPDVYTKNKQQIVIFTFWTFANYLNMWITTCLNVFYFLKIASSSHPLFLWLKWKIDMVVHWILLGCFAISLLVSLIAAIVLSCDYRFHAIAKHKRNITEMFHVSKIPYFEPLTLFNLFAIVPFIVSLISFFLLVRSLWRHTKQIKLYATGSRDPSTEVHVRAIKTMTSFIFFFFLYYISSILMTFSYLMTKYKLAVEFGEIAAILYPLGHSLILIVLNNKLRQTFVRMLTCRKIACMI

[2] = target: T2, Taste receptor type 2 member 38 (Homo sapiens) (UniProt P59533); experiment: Agonist activity at recombinant human N-terminal rat ST3 receptor-fused TAS2R38 expressed in HEK293T cells co-expressing Galpha16gust44 assessed as increase in intracellular calcium level at 100 uM by FLIPR assay
T2 sequence (whole entry): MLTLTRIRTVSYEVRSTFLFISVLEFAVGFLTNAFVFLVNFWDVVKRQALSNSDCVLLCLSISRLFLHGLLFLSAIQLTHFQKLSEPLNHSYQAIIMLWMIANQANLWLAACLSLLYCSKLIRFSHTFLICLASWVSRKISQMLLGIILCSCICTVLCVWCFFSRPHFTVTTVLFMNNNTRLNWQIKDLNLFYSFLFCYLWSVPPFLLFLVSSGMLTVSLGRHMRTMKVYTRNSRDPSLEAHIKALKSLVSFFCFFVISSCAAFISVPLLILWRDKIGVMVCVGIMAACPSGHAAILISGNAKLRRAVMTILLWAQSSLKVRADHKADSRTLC

[3] = target: T3, Taste receptor type 2 member 16 (Homo sapiens) (UniProt Q9NYV7); experiment: Agonist activity at recombinant human N-terminal rat ST3 receptor-fused TAS2R16 expressed in HEK293T cells co-expressing Galpha16gust44 assessed as increase in intracellular calcium level at 100 uM by FLIPR assay
T3 sequence (whole entry): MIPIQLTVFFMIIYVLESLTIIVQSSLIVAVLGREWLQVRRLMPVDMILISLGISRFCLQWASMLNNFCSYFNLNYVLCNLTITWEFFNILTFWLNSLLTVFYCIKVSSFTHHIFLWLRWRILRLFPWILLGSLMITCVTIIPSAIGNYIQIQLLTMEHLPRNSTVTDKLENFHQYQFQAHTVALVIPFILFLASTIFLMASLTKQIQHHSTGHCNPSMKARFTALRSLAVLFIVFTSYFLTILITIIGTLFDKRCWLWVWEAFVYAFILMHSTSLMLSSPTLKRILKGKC

[4] = target: T4, Taste receptor type 2 member 39 (Homo sapiens) (UniProt P59534); experiment: Agonist activity at recombinant human N-terminal rat ST3 receptor-fused TAS2R39 expressed in HEK293T cells co-expressing Galpha16gust44 assessed as increase in intracellular calcium level at 100 uM by FLIPR assay
T4 sequence (whole entry): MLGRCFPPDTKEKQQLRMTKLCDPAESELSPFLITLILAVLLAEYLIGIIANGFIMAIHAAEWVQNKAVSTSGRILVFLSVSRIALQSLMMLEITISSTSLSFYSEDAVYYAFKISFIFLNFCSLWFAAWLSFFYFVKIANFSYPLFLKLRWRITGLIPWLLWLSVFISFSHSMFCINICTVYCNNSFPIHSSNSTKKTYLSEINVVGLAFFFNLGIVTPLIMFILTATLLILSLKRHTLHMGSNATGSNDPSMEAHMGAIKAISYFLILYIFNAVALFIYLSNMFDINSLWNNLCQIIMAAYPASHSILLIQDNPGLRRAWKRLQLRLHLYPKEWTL

[5] = target: Taste receptor type 2 member 40 (Homo sapiens) (UniProt P59535); experiment: Agonist activity at recombinant human N-terminal rat ST3 receptor-fused TAS2R40 expressed in HEK293T cells co-expressing Galpha16gust44 assessed as increase in intracellular calcium level at 100 uM by FLIPR assay
Sequence of Taste receptor type 2 member 40 (Homo sapiens) (P59535 whole entry, the tested form may be a part): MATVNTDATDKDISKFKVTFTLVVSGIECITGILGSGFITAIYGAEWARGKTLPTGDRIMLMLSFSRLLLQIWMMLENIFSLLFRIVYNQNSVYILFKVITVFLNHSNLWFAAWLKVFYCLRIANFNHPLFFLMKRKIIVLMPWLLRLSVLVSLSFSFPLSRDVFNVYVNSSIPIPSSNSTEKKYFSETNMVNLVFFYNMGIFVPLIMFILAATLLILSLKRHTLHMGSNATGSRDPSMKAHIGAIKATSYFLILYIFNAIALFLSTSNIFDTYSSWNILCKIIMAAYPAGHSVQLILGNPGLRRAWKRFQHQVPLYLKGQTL

[6] = target: Taste receptor type 2 member 41 (Homo sapiens) (UniProt P59536); experiment: Agonist activity at recombinant human N-terminal rat ST3 receptor-fused TAS2R41 expressed in HEK293T cells co-expressing Galpha16gust44 assessed as increase in intracellular calcium level at 100 uM by FLIPR assay
Sequence of Taste receptor type 2 member 41 (Homo sapiens) (P59536 whole entry, the tested form may be a part): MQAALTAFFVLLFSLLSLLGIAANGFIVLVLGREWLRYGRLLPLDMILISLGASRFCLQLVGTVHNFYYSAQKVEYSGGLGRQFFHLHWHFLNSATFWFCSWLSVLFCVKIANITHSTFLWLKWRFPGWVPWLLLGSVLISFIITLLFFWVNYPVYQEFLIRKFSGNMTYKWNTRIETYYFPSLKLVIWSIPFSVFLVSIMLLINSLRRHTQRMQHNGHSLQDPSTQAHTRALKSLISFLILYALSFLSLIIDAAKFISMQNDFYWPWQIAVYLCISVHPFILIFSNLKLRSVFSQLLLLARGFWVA

[7] = target: T5, Taste receptor type 2 member 30 (Homo sapiens) (UniProt P59541); experiment: Agonist activity at recombinant human N-terminal rat ST3 receptor-fused TAS2R47 expressed in HEK293T cells co-expressing Galpha16gust44 assessed as increase in intracellular calcium level at 100 uM by FLIPR assay
T5 sequence (whole entry): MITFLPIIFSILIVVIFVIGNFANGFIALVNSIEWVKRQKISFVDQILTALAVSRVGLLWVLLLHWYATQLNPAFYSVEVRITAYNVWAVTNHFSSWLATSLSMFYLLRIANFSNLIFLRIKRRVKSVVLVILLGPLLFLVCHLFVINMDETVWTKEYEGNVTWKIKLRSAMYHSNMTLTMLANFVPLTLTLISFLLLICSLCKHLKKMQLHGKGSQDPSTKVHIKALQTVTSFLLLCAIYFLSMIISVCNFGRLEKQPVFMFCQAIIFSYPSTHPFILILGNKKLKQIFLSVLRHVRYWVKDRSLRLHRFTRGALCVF

[8] = target: Taste receptor type 2 member 60 (Homo sapiens) (UniProt P59551); experiment: Agonist activity at recombinant human N-terminal rat ST3 receptor-fused TAS2R60 expressed in HEK293T cells co-expressing Galpha16gust44 assessed as increase in intracellular calcium level at 100 uM by FLIPR assay
Sequence of Taste receptor type 2 member 60 (Homo sapiens) (P59551 whole entry, the tested form may be a part): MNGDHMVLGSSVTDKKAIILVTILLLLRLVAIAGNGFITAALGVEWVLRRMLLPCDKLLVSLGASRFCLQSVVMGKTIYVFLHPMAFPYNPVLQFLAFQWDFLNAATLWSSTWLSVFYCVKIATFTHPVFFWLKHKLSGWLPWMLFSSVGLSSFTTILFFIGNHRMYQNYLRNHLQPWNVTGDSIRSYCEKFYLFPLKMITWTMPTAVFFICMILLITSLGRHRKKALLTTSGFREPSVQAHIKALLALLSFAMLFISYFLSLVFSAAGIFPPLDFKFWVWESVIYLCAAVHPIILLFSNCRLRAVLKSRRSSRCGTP

[9] = target: T6, Taste receptor type 2 member 10 (Homo sapiens) (UniProt Q9NYW0); experiment: (§1) Competitive-antagonist activity at recombinant human N-terminal rat ST3 receptor-fused TAS2R10 expressed in HEK293T cells co-expressing Galpha16gust44 assessed as inhibition of strychnine-induced increase in intracellular calcium level by measuring maximum signal amplitude at 30 uM by FLIPR assay (reference value: 0.42 +/- 0.09 a.u.)
T6 sequence (whole entry): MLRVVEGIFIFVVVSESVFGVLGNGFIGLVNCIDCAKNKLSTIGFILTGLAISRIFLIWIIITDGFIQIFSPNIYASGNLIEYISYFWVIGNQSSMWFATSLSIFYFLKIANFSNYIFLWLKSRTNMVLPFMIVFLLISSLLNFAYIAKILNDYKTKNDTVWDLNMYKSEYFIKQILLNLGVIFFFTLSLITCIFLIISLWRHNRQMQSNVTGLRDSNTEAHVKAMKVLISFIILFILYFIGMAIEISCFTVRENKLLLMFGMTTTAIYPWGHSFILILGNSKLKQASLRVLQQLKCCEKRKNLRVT

[10] = target: T6, Taste receptor type 2 member 10 (Homo sapiens); experiment: as §1, with “100” for “30”

C/C1=C\C[C@H](O)/C(C)=C/[C@H]2OC(=O)[C@@H](C)[C@@H]2CC1
Activity [1]: Active | Activity [2]: Active | Activity [3]: inactive | Activity [4]: inactive | Activity [5]: inactive | Activity [6]: inactive | Activity [7]: inactive | Activity [8]: inactive | Activity [9]: 0.41 a.u. | Activity [10]: 0.34 a.u.
